Like-named read-outs stand apart in the source and are kept apart here.
How the values were obtained:
[1] = test system: IL-1β; assay: LPS-induced inflammatory response in astrocytes, IL-1β release (ELISA); assay type: cell-based, Kunming mice; settings: culture supernatant, LPS 1 μg·ml-1 + substance 10 μg·ml-1, 24 h, n=6
Excerpt: Experiment 9 Inhibition of 5-Methyltetrahydrofolate and Curcumin on LPS-Induced Inflammatory Response in Astrocytes
The cerebral cortex of Kunming mice at 1˜2 d was taken out under aseptic conditions, washed 3 times with cold PBS after removing residual meninges and blood vessels, prepared into single cell suspension by blowing, centrifuged, the supernatant was discarded, and the precipitant was resuspended in AST basic medium (high-sugar DMEM containing 10% FBS). The suspension was inoculated into a culture flask coated with poly-L-lysine (0.1 mg/ml), and cultured in a CO2 incubator. After 24 h, tissue debris and non-adherent cells were removed by replacing the medium. Afterwards, the medium was replaced every 3 days until the cells reached 80% confluence, then the flask was placed on a constant temperature rotary shaker, where the suspension was centrifuged at 180 r/min, 37° C. for 18 h to remove oligodendrocytes and microglia from the upper layer. Then trypsin digestion was used for subculture. […]
LPS (1 μg·ml-1), LPS (1 μg·ml-1)+curcumin (10 μg·ml-1), LPS (1 μg·ml-1)+5-MTHF-Ca (10 μg·ml-1); experimental group: LPS (1 μg·ml-1)+curcumin (5 μg·ml-1)+5-MTHF-Ca (5 μg·ml-1). After 24 h, the culture supernatant was collected, and the cytokines IL-6, IL-1β and TNF-α were detected by ELISA.

[2] = test system: methanol metabolism in rats; settings: n=5
Protocol: Experiment 10 Effects of Drinking and 5-Methyltetrahydrofolate on the Formate in the Urine of SD Rats
In order to study the effects of 5-methyltetrahydrofolate and ethanol on methanol metabolism in rats, SPF-grade female SD rats, fasted overnight, were divided into 4 groups: (1) ethanol group, with intragastric administration of ethanol at a dose of 1 g/kg respectively at 1, 2, 3 h, n=7; (2) control group, with intragastric administration of glucose at a dose of 1.6 g/kg (equivalent to alcohol calories) respectively at 1, 2, and 3 h, n=5; (3) 5-methyltetrahydrofolate group, with intragastric administration of 5-methyltetrahydrofolate calcium at a dose of 4 mg/kg at 0 h, followed by glucose at a dose of 1.6 g/kg (equivalent to alcohol calories) respectively at 1, 2, and 3 h, n=5; (4) 5-methyltetrahydrofolate alcohol group, with intragastric administration of 5-methyltetrahydrofolate calcium at a dose of 4 mg/kg at 0 h, followed by ethanol at a dose of 1 g/kg respectively at 1, 2, and 3 h, n=5.
Food grade alcohol was used, with a methanol content of less than 5 mg/L. Urine was collected, from 0 to 24 h, into a test tube containing 0.1 mL of thioethanol and stored at −70° C. The urine samples were divided into three parts, of which gas chromatographic method, fluorescence method and HPLC-DNPH derivative method were used to detect ethanol and methanol contents (see Table 16), formate content, and formaldehyde content (see Table 17) in urine, respectively.
The method for detecting formate is as follows: 0.1 mL of urine was mixed with 0.1 mL of 10 mmol/L NAD+, 0.1 mL of potassium phosphate buffer (pH 7.4, 20 mmol/L) and 50 μL of formate dehydrogenase, then 0.1 mL of diaphorase (4 U/mL), 50 μL of resazurin solution (0.2 mg/ml) and 0.5 ml of phosphate buffer (pH 6.00, 200 mmol/L) were added. The mixture was incubated at 37° C. for 5 min, then immersed in boiling water for 3 min, and then cooled to room temperature. Fluorescence spectrophotometry was used to determine the content of formate in the mixture, with an emission wavelength of 590 nm and an absorption wavelength of 565 nm.
The method for detecting formaldehyde is as follows: 0.1 ml of urine was taken and filtered through filtering membrane, 0.05 ml of 2,4-dinitrophenylhydrazine (DNPH, 0.1 g/L) and 0.25 ml of trifluoroacetic acid were added to it. The sample was vortexed for 30 s, centrifuged, […]. HPLC was used for analysis, with a detection wavelength of 355 nm, column temperature of 35° C., and mobile phase of 65% acetonitrile.

[3] = 5-methyltetrahydrofolate calcium 4 mg/kg ig at 0 h + ethanol 1 g/kg at 1, 2, 3 h
[4] = 5-methyltetrahydrofolate calcium 4 mg/kg ig at 0 h + glucose 1.6 g/kg at 1, 2, 3 h

5-methyltetrahydrofolate calcium
IL-1β [1]: 721.45 ± 8.79 pg/mL

CN1c2c([nH]c(N)nc2=O)NCC1CNc1ccc(C(=O)N[C@@H](CCC(=O)O)C(=O)O)cc1 (stereo partly drawn) [5-methyltetrahydrofolate, N-[4-[[(2-amino-1,4,5,6,7,8-hexahydro-4-oxo-5-methyl-(6S), -(6R), and (6R,S)-pteridyl)methyl)amino)toluoyl-glutamic acid]
Ethanol content in urine, 3 h [2, 3]: 11.6 ± 1.3 mg/L
Formaldehyde content in urine, 3 h [2, 3]: 0.8 ± 0.4 mg/L
Formate content in urine, 3 h [2, 3]: 241 ± 42 mg/L
Methanol content in urine, 3 h [2, 3]: 1.6 ± 0.3 mg/L
Ethanol content in urine, 4 h [2, 3]: 25.2 ± 2.2 mg/L
Formaldehyde content in urine, 4 h [2, 3]: 1.7 ± 0.6 mg/L
Formate content in urine, 4 h [2, 3]: 255 ± 30 mg/L
Methanol content in urine, 4 h [2, 3]: 2.5 ± 0.4 mg/L
Ethanol content in urine, 8 h [2, 3]: 24.1 ± 2.3 mg/L
Formaldehyde content in urine, 8 h [2, 3]: 2.9 ± 1.2 mg/L
Formate content in urine, 8 h [2, 3]: 345 ± 43 mg/L
Methanol content in urine, 8 h [2, 3]: 6.4 ± 1.0 mg/L
Ethanol content in urine, 12 h [2, 3]: 11.8 ± 2.0 mg/L
Formaldehyde content in urine, 12 h [2, 3]: 3.1 ± 1.0 mg/L
Formate content in urine, 12 h [2, 3]: 351 ± 45 mg/L
Methanol content in urine, 12 h [2, 3]: 4.4 ± 0.9 mg/L
Ethanol content in urine, 16 h [2, 3]: 4.3 ± 0.8 mg/L
Formaldehyde content in urine, 16 h [2, 3]: 1.9 ± 0.9 mg/L
Formate content in urine, 16 h [2, 3]: 247 ± 48 mg/L
Methanol content in urine, 16 h [2, 3]: 3.7 ± 0.9 mg/L
Ethanol content in urine, 24 h [2, 3]: 1.7 ± 0.7 mg/L
Formaldehyde content in urine, 24 h [2, 3]: 1.0 ± 0.5 mg/L
Formate content in urine, 24 h [2, 3]: 211 ± 39 mg/L
Methanol content in urine, 24 h [2, 3]: 1.9 ± 0.7 mg/L
Ethanol content in urine, 3 h [2, 4]: 0.6 ± 0.4 mg/L
Formaldehyde content in urine, 3 h [2, 4]: 0.8 ± 0.4 mg/L
Formate content in urine, 3 h [2, 4]: 215 ± 33 mg/L
Methanol content in urine, 3 h [2, 4]: 1.0 ± 0.3 mg/L
Ethanol content in urine, 4 h [2, 4]: 0.8 ± 0.5 mg/L
Formaldehyde content in urine, 4 h [2, 4]: 0.8 ± 0.5 mg/L
Formate content in urine, 4 h [2, 4]: 237 ± 42 mg/L
Methanol content in urine, 4 h [2, 4]: 1.1 ± 0.4 mg/L
Ethanol content in urine, 8 h [2, 4]: 1.5 ± 0.4 mg/L
Formaldehyde content in urine, 8 h [2, 4]: 0.7 ± 0.4 mg/L
Formate content in urine, 8 h [2, 4]: 198 ± 36 mg/L
Methanol content in urine, 8 h [2, 4]: 1.2 ± 0.4 mg/L
Ethanol content in urine, 12 h [2, 4]: 1.5 ± 0.3 mg/L
Formaldehyde content in urine, 12 h [2, 4]: 0.8 ± 0.3 mg/L
Formate content in urine, 12 h [2, 4]: 187 ± 32 mg/L
Methanol content in urine, 12 h [2, 4]: 1.1 ± 0.4 mg/L
Ethanol content in urine, 16 h [2, 4]: 1.7 ± 0.5 mg/L
Formaldehyde content in urine, 16 h [2, 4]: 0.8 ± 0.5 mg/L
Formate content in urine, 16 h [2, 4]: 190 ± 41 mg/L
Methanol content in urine, 16 h [2, 4]: 1.3 ± 0.5 mg/L
Ethanol content in urine, 24 h [2, 4]: 1.6 ± 0.4 mg/L
Formaldehyde content in urine, 24 h [2, 4]: 0.8 ± 0.4 mg/L
Formate content in urine, 24 h [2, 4]: 188 ± 36 mg/L
Methanol content in urine, 24 h [2, 4]: 1.1 ± 0.3 mg/L
